Broadly, the Ki is a measure of affinity in units of concentration, obtained from inhibition or displacement.

We go through 20 molecules from ChEMBL document CHEMBL4706681, “New 2-Pyrazoline and Hydrazone Derivatives as Potent and Selective Monoamine Oxidase A Inhibitors” (J Med Chem, 2021).

In assay [1] the target is T1, Amine oxidase [flavin-containing] B (Homo sapiens, UniProt P27338).
T1 sequence (P27338 whole entry): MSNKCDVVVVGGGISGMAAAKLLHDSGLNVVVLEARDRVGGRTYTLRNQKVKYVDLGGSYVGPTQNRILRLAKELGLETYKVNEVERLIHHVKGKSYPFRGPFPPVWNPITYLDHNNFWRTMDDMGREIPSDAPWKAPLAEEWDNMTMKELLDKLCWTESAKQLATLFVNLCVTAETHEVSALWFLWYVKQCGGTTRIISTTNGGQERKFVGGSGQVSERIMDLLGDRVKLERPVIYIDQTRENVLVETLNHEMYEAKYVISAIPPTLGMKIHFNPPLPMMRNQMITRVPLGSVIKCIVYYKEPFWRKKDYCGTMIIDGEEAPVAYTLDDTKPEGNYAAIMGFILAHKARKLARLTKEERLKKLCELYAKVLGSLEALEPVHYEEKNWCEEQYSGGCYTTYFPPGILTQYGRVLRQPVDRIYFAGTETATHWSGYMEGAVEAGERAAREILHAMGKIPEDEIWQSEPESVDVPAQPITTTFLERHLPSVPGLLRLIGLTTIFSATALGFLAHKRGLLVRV
Briefly: Inhibition of recombinant human MAO-B expressed in baculovirus infected BTI insect cells using p-tyramine as substrate incubated for 30 mins by Amplex red reagent based fluorescence analysis. The class given is cell-based.

Assay [2] in a line: Selectivity index, ratio of Ki for inhibition of recombinant human MAO-A to Ki for inhibition of recombinant human MAO-B using p-tyramine as substrate.
The target of assay [3] is T2, Amine oxidase [flavin-containing] A (Homo sapiens, UniProt P21397).
T2 sequence (P21397 whole entry): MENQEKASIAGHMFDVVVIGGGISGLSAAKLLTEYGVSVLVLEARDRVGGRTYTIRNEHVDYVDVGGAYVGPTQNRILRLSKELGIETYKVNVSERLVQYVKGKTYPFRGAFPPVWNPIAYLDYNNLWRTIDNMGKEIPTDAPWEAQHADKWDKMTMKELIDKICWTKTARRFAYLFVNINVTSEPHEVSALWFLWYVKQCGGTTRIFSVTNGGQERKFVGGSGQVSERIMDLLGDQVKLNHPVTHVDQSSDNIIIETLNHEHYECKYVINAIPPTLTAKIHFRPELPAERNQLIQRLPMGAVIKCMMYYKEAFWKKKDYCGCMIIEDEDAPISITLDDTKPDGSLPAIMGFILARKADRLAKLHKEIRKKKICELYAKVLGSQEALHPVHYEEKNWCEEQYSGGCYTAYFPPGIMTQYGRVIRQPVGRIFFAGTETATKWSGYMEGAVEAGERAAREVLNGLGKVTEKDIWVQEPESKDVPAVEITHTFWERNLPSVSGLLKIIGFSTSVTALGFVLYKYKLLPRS
Briefly: Inhibition of recombinant human MAO-A expressed in baculovirus infected BTI insect cells using p-tyramine as substrate incubated for 30 mins by Amplex red reagent based fluorescence analysis.

Turning to `COc1cccc(C2CC(c3ccc(C)cc3)=NN2C(=O)Cn2c(=O)oc3ccc(C)cc32)c1OC` (stereo not given), the results for the Ki in assay [1] and in assay [3] were 52000 nM and 266 nM, respectively. The Ratio Ki in assay [2] was 0.005.
With `COc1ccc(C2=NN(C(=O)Cn3c(=O)oc4ccc(C)cc43)C(c3ccccc3Cl)C2)cc1` (stereo not given), the Ki in assay [1] was 400 nM; in assay [3] it was 18 nM. Besides, in assay [2], the Ratio Ki amounted to 0.045.
As for `Cc1ccc(C2=NN(C(=O)Cn3c(=O)oc4ccc(C)cc43)C(c3ccccc3)C2)cc1` (stereo not given), the Ki in assay [1] is 29000 nM; in assay [3], 50 nM. Besides, the Ratio Ki in assay [2] stood at 0.002.
Regarding `COc1ccc(C2=NN(C(=O)Cn3c(=O)oc4ccccc43)C(c3ccccc3)C2)cc1` (stereo not given), the values for the Ki in assay [1] and in assay [3] were 9000 nM and 11 nM, respectively. For the same molecule, the Ratio Ki in assay [2] came out at 0.001.
Consider `COc1cccc(C2CC(c3ccccc3)=NN2C(=O)Cn2c(=O)oc3ccc(C)cc32)c1` (stereo not given), for which the values for the Ki in assay [1] and in assay [3] were 21300 nM and 5 nM, respectively. In addition, the Ratio Ki in assay [2] is 2.35 10^-4No_unit.
As for `COc1cccc(C2CC(c3ccc(C)cc3)=NN2C(=O)Cn2c(=O)oc3ccccc32)c1OC` (stereo not given), the results for the Ki in assay [1] and in assay [3] were 120000 nM and 28 nM, respectively. Moreover, the Ratio Ki in assay [2] was 2.32 10^-4No_unit.
With `COc1cccc(C2=NN(C(=O)Cn3c(=O)oc4ccccc43)C(c3ccccc3Cl)C2)c1` (stereo not given), the Ki in assay [1] is 7500 nM; in assay [3], 60 nM. Also, in assay [2], the Ratio Ki amounted to 0.008.
In the same order, the values of `Cc1ccc(C2CC(c3ccccc3)=NN2C(=O)Cn2c(=O)oc3ccc(Cl)cc32)cc1` (stereo not given) are 8550 nM, 40 nM and 0.005.
Take `COc1ccccc1C1=NN(C(=O)Cn2c(=O)oc3ccc(Cl)cc32)C(c2ccccc2Cl)C1` (stereo not given): the Ki in assay [1] was determined as 11000 nM; in assay [3], 50 nM. Further, in assay [2], the Ratio Ki was 0.005.
Regarding `COc1ccc(C2CC(c3ccccc3)=NN2C(=O)Cn2c(=O)oc3ccc(Cl)cc32)cc1OC` (stereo not given), the Ki in assay [1] amounted to 50200 nM; in assay [3] it was 3000 nM. In assay [2], the Ratio Ki turned out to be 0.06.
`Cc1ccc(C2CC(c3ccccc3)=NN2C(=O)Cn2c(=O)oc3ccc(C)cc32)cc1` (stereo not given): the Ki in assay [1] was 5220 nM; in assay [3], 8 nM. Further, in assay [2], the Ratio Ki was 0.002.
For `COc1ccc(C2=NN(C(=O)Cn3c(=O)oc4ccc(Cl)cc43)C(c3ccccc3Cl)C2)cc1` (stereo not given), the Ki in assay [1] came out at 25600 nM; in assay [3], 65 nM. The Ratio Ki in assay [2] worked out at 0.003.
For `Cc1ccc(C2=NN(C(=O)Cn3c(=O)oc4ccc(Cl)cc43)C(c3ccccc3)C2)cc1` (stereo not given), the Ki in assay [1] was 55600 nM; in assay [3], 20 nM. In assay [2], the Ratio Ki was 3.6 10^-4No_unit.
For the molecule `O=C(Cn1c(=O)oc2ccccc21)N/N=C(\C=C\c1ccccc1)c1ccccc1`, the figures for the Ki in assay [1] and in assay [3] were 19000 nM and 1 nM, respectively. Also, the Ratio Ki in assay [2] is 5.26 10^-5No_unit.
In the case of `COc1cccc(C2=NN(C(=O)Cn3c(=O)oc4ccc(Cl)cc43)C(c3ccccc3Cl)C2)c1` (stereo not given), the results for the Ki in assay [1] and in assay [3] were 2550 nM and 120 nM, respectively. Further, the Ratio Ki in assay [2] worked out at 0.05.
`COc1ccc(C2=NN(C(=O)Cn3c(=O)oc4ccc(Cl)cc43)C(c3ccccc3)C2)cc1` (stereo not given): the Ki in assay [1] worked out at 1950 nM; in assay [3] it was 4 nM. For the same molecule, the Ratio Ki in assay [2] was 0.002.
With `COc1cccc(C2CC(c3ccccc3)=NN2C(=O)Cn2c(=O)oc3ccc(Cl)cc32)c1` (stereo not given), the inhibition constant (Ki) stood at 1000 nM in assay [1] and 985 nM in assay [3]. Besides, the Ratio Ki in assay [2] worked out at 0.985.
On the same counts, the results for `COc1ccccc1C(/C=C/c1ccccc1)=N/NC(=O)Cn1c(=O)oc2ccc(C)cc21` are 54000 nM, 12 nM and 2.22 10^-4No_unit.
Turning to `COc1cccc(C2CC(c3ccc(C)cc3)=NN2C(=O)Cn2c(=O)oc3ccc(Cl)cc32)c1OC` (stereo not given), the values for the Ki in assay [1] and in assay [3] were 91300 nM and 510 nM, respectively. The Ratio Ki in assay [2] was determined as 0.006.
On the same counts, the results for `COc1ccccc1C1=NN(C(=O)Cn2c(=O)oc3ccc(C)cc32)C(c2ccccc2Cl)C1` (stereo not given) are 15900 nM, 308 nM and 0.019.
